Measured values: patent US20230250060A1 (IFM Due, Inc., priority 2022, published 2023)

Biological target: T1, STING (Homo sapiens, UniProt Q86WV6, G230A/H232R/R293Q/R71H)
T1 construct: host or cells: THP1-Dual KO-IFNAR2 cells
Assay: STING reporter assay (luciferase) in THP1-Dual KO-IFNAR2 cells stimulated with 2′3′cGAMP
Assay type: cell-based
Conditions: 2′3′cGAMP 15 μM final, 24 h, luciferase reporter activity, read-out: Pharmaron, THP1_IFNAR2 STING 24 h Luci Normalized: GeoMean EC50
Description: STING pathway activation by the compounds described herein was measured using TTIP1-Dual™ cells (KO-IFNAR2).
TTIP1-Dual™ KO-IFNAR2 Cells (obtained from invivogen) were maintained in RPMI, 10% FCS, 5 ml P/S, 2 mM L-glut, 10 mM Hepes, and 1 mM sodium pyruvate. Compounds were spotted in empty 384 well tissue culture plates (Greiner 781182) by Echo for a final concentration of 0.0017-100 μM. Cells were plated into the TC plates at 40 μL per well, 2×10E6 cells/mL. For activation with STING ligand, 2′3′cGAMP (MW 718.38, obtained from Invivogen), was prepared in Optimem media.
The following solutions were prepared for each 1×384 plate: • Solution A: 2 mL Optimem with one of the following stimuli: • […] • Solution B: 2 mL Optimem with […] Lipofectamine 2000→Incubate 5 min at RT
2 mL of solution A and 2 ml Solution B was mixed and incubated for 20 min at room temperature (RT). 20 μL of transfection solution (A+B) was added on top of the plated cells, with a final 2′3′cGAMP concentration of 15 μM. The plates were then centrifuged immediately at 340 g for 1 minute, after which they were incubated at 37° C., 5% CO2, >98% humidity for 24 h. Luciferase reporter activity was then measured. EC50 values were calculated by using standard methods known in the art.
Luciferase reporter assay: 10 μL of supernatant from the assay was transferred to white 384-plate with flat bottom and squared wells. One pouch of QUANTI-Luc™ Plus was dissolved in 25 mL of water. 100 μL of QLC Stabilizer per 25 mL of QUANTI-Luc™ Plus solution was added. 50 μL of QUANTI-Luc™ Plus/QLC solution per well was then added. Luminescence was measured on a Platereader (e.g., Spectramax I3X (Molecular Devices GF3637001)).
Luciferase reporter activity was then measured. EC50 values were calculated by using standard methods known in the art.

T1 sequence (Q86WV6 whole entry R71H/G230A/H232R/R293Q): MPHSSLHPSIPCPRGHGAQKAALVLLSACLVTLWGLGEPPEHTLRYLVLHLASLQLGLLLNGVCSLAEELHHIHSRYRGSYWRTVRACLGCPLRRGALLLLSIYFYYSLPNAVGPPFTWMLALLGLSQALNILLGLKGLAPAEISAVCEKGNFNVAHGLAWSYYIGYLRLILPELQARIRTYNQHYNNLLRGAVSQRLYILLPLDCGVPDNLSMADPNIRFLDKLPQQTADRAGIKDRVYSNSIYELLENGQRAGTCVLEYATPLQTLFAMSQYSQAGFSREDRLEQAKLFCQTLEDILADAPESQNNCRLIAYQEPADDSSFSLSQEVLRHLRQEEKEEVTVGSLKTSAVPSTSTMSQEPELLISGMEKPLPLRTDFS

| Compound | EC50 [µM] |
| --- | --- |
| O=C(Nc1c[nH]c2ccc(OCC[C@@H]3C[C@@H]4CN(CC(F)(F)F)C[C@@H]4C3)cc12)C1CC12CC2 (stereo partly drawn) [Compound 158, N-(5-(2-((3aR,5r,6aS)-2-(2,2,2-trifluoroethyl)octahydrocyclopenta[c]pyrrol-5-yl)ethoxy)-1H-indol-3-yl)spiro[2.2]pentane-1-carboxamide] | 1 to 5 |
| Cc1oncc1C(=O)Nc1c[nH]c2ccc(OCC[C@@H]3C[C@@H]4CN(CC(F)(F)F)C[C@@H]4C3)cc12 [Compound 159, 5-methyl-N-(5-(2-((3aR,5r,6aS)-2-(2,2,2-trifluoroethyl)octahydrocyclopenta[c]pyrrol-5-yl)ethoxy)-1H-indol-3-yl)isoxazole-4-carboxamide] | 5 to 100 |
| O=C(Nc1c[nH]c2ccc(CCOc3ccc(C(F)(F)F)cc3)cc12)c1ccn[nH]1 [Compound 160, N-(5-(2-(4-(trifluoromethyl)phenoxy)ethyl)-1H-indol-3-yl)-1H-pyrazole-5-carboxamide] | 0.2 to 1 |
| O=C(Nc1c[nH]c2ccc(OCCc3ccc(C(F)(F)F)cc3)cc12)c1ncco1 [Compound 161, N-(5-(4-(trifluoromethyl)phenethoxy)-1H-indol-3-yl)oxazole-2-carboxamide] | 0.2 to 1 |
| Cn1nccc1C(=O)Nc1c[nH]c2ccc(OCc3ccc(C(F)(F)F)cc3)cc12 [Compound 162, 1-methyl-N-(5-((4-(trifluoromethyl)benzyl)oxy)-1H-indol-3-yl)-1H-pyrazole-5-carboxamide] | 0.2 to 1 |
| CC12CC(C(=O)Nc3c[nH]c4ccc(OCc5ccc(C(F)(F)F)cc5)cc34)(C1)C2 [Compound 163, 3-methyl-N-(5-((4-(trifluoromethyl)benzyl)oxy)-1H-indol-3-yl)bicyclo[1.1.1]pentane-1-carboxamide] | 0.2 to 1 |
| O=C(Nc1c[nH]c2ccc(OCc3ccc(C(F)(F)F)cc3)cc12)C12CC(C1)C2 [Compound 164, N-(5-((4-(trifluoromethyl)benzyl)oxy)-1H-indol-3-yl)bicyclo[1.1.1]pentane-1-carboxamide] | 0.2 to 1 |
| O=C(Nc1c[nH]c2ccc(OCc3ccc(C(F)(F)F)cc3)cc12)c1cscn1 [Compound 165, N-(5-((4-(trifluoromethyl)benzyl)oxy)-1H-indol-3-yl)thiazole-4-carboxamide] | 1 to 5 |
| O=C(Nc1c[nH]c2ccc(O[C@H]3C[C@@H](c4ccc(C(F)(F)F)cc4)C3)cc12)c1ccncc1 [Compound 166, N-(5-((1s,3s)-3-(4-(trifluoromethyl)phenyl)cyclobutoxy)-1H-indol-3-yl)isonicotinamide] | 0.2 to 1 |
| O=C(Nc1c[nH]c2ccc(O[C@H]3C[C@@H](c4ccc(C(F)(F)F)cc4)C3)cc12)c1ccn[nH]1 [Compound 167, N-(5-((1s,3s)-3-(4-(trifluoromethyl)phenyl)cyclobutoxy)-1H-indol-3-yl)-1H-pyrazole-5-carboxamide] | 0.04 to 0.2 |
| Cn1nccc1C(=O)Nc1c[nH]c2ccc(O[C@H]3C[C@@H](c4ccc(C(F)(F)F)cc4)C3)cc12 [Compound 168, 1-methyl-N-(5-((1s,3s)-3-(4-(trifluoromethyl)phenyl)cyclobutoxy)-1H-indol-3-yl)-1H-pyrazole-5-carboxamide] | 0.2 to 1 |
| O=C(Nc1c[nH]c2ccc(O[C@H]3C[C@@H](c4ccc(C(F)(F)F)cc4)C3)cc12)c1cccnc1 [Compound 169, N-(5-((1s,3s)-3-(4-(trifluoromethyl)phenyl)cyclobutoxy)-1H-indol-3-yl)nicotinamide] | 0.04 to 0.2 |
| O=C(Nc1c[nH]c2ccc(O[C@H]3C[C@@H](c4ccc(C(F)(F)F)cc4)C3)cc12)c1ccccn1 [Compound 170, N-(5-((1s,3s)-3-(4-(trifluoromethyl)phenyl)cyclobutoxy)-1H-indol-3-yl)picolinamide] | 1 to 5 |
| CC12CC(C(=O)Nc3c[nH]c4ccc(O[C@H]5C[C@@H](c6ccc(C(F)(F)F)cc6)C5)cc34)(C1)C2 [Compound 171, 3-methyl-N-(5-((1s,3s)-3-(4-(trifluoromethyl)phenyl)cyclobutoxy)-1H-indol-3-yl)bicyclo[1.1.1]pentane-1-carboxamide] | 0.2 to 1 |
| O=C(Nc1c[nH]c2ccc(O[C@H]3C[C@@H](c4ccc(C(F)(F)F)cc4)C3)cc12)C1CC12CC2 (stereo partly shown) [Compound 172, N-(5-((1s,3s)-3-(4-(trifluoromethyl)phenyl)cyclobutoxy)-1H-indol-3-yl)spiro[2.2]pentane-1-carboxamide] | 0.2 to 1 |
| O=C(Nc1c[nH]c2ccc(O[C@H]3C[C@@H](c4ccc(C(F)(F)F)cc4)C3)cc12)C12CC(C1)C2 [Compound 173, N-(5-((1s,3s)-3-(4-(trifluoromethyl)phenyl)cyclobutoxy)-1H-indol-3-yl)bicyclo[1.1.1]pentane-1-carboxamide] | 0.2 to 1 |
| O=C(Nc1c[nH]c2ccc(O[C@H]3C[C@@H](c4ccc(C(F)(F)F)cc4)C3)cc12)c1ncccc1F [Compound 174, 3-fluoro-N-(5-((1s,3s)-3-(4-(trifluoromethyl)phenyl)cyclobutoxy)-1H-indol-3-yl)picolinamide] | 0.2 to 1 |
| O=C(Nc1c[nH]c2ccc(O[C@H]3C[C@@H](c4ccc(C(F)(F)F)cc4)C3)cc12)c1nccs1 [Compound 175, N-(5-((1s,3s)-3-(4-(trifluoromethyl)phenyl)cyclobutoxy)-1H-indol-3-yl)thiazole-2-carboxamide] | 0.2 to 1 |
| Cc1oncc1C(=O)Nc1c[nH]c2ccc(O[C@H]3C[C@@H](c4ccc(C(F)(F)F)cc4)C3)cc12 [Compound 176, 5-methyl-N-(5-((1s,3s)-3-(4-(trifluoromethyl)phenyl)cyclobutoxy)-1H-indol-3-yl)isoxazole-4-carboxamide] | 5 to 100 |
| Cc1noc(C)c1C(=O)Nc1c[nH]c2ccc(O[C@H]3C[C@@H](c4ccc(C(F)(F)F)cc4)C3)cc12 [Compound 177, 3,5-dimethyl-N-(5-((1s,3s)-3-(4-(trifluoromethyl)phenyl)cyclobutoxy)-1H-indol-3-yl)isoxazole-4-carboxamide] | 0.04 to 0.2 |
| O=C(Nc1c[nH]c2ccc(O[C@H]3C[C@@H](c4ccc(C(F)(F)F)cc4)C3)cc12)c1cncs1 [Compound 178, N-(5-((1s,3s)-3-(4-(trifluoromethyl)phenyl)cyclobutoxy)-1H-indol-3-yl)thiazole-5-carboxamide] | 0.2 to 1 |
| O=C(Nc1c[nH]c2ccc(OCC[C@@H]3C[C@@H]4CN(CC(F)(F)F)C[C@@H]4C3)cc12)c1ccncc1 [Compound 179, N-(5-(2-((3aR,5r,6aS)-2-(2,2,2-trifluoroethyl)octahydrocyclopenta[c]pyrrol-5-yl)ethoxy)-1H-indol-3-yl)isonicotinamide] | 0.2 to 1 |
| O=C(Nc1c[nH]c2ccc(OCC[C@@H]3C[C@@H]4CN(CC(F)(F)F)C[C@@H]4C3)cc12)c1ccn[nH]1 [Compound 180, N-(5-(2-((3aR,5r,6aS)-2-(2,2,2-trifluoroethyl)octahydrocyclopenta[c]pyrrol-5-yl)ethoxy)-1H-indol-3-yl)-1H-pyrazole-5-carboxamide] | 0.2 to 1 |
| Cn1nccc1C(=O)Nc1c[nH]c2ccc(OCC[C@@H]3C[C@@H]4CN(CC(F)(F)F)C[C@@H]4C3)cc12 [Compound 181, 1-methyl-N-(5-(2-((3aR,5r,6aS)-2-(2,2,2-trifluoroethyl)octahydrocyclopenta[c]pyrrol-5-yl)ethoxy)-1H-indol-3-yl)-1H-pyrazole-5-carboxamide] | 0.2 to 1 |
| O=C(Nc1c[nH]c2ccc(OCC[C@@H]3C[C@@H]4CN(CC(F)(F)F)C[C@@H]4C3)cc12)c1cccnc1 [Compound 182, N-(5-(2-((3aR,5r,6aS)-2-(2,2,2-trifluoroethyl)octahydrocyclopenta[c]pyrrol-5-yl)ethoxy)-1H-indol-3-yl)nicotinamide] | 0.2 to 1 |
| O=C(Nc1c[nH]c2ccc(OCC[C@@H]3C[C@@H]4CN(CC(F)(F)F)C[C@@H]4C3)cc12)c1ccccn1 [Compound 183, N-(5-(2-((3aR,5r,6aS)-2-(2,2,2-trifluoroethyl)octahydrocyclopenta[c]pyrrol-5-yl)ethoxy)-1H-indol-3-yl)picolinamide] | 1 to 5 |
| O=C(CC1CC1)Nc1c[nH]c2ccc(OCC[C@@H]3C[C@@H]4CN(CC(F)(F)F)C[C@@H]4C3)cc12 [Compound 184] | 0.2 to 1 |
| O=C(Nc1c[nH]c2ccc(OCC[C@@H]3C[C@@H]4CN(CC(F)(F)F)C[C@@H]4C3)cc12)C12CC(F)(C1)C2 [Compound 185, 3-fluoro-N-(5-(2-((3aR,5r,6aS)-2-(2,2,2-trifluoroethyl)octahydrocyclopenta[c]pyrrol-5-yl)ethoxy)-1H-indol-3-yl)bicyclo[1.1.1]pentane-1-carboxamide] | 0.2 to 1 |
